# Measurements: patent US8580794B2 (AbbVie Inc., priority 2009, dated 2013)
# pKi: −log10 of the molar value.
# Biological target: GST-Bc1-2 (Homo sapiens, UniProt P10415)
# Test: Time Resolved-Fluorescence Resonance Energy Transfer (TR-FRET) Bcl-2 binding assay with F-Bak peptide probe
# Details: GST-Bcl-2 1 nM, F-Bak probe 100 nM, Tb-anti-GST 1 nM; '<' = below limit of detection; read-out: TR-FRET Bcl-2 Binding Ki
# Chain of GST-Bc1-2 (P10415 whole entry): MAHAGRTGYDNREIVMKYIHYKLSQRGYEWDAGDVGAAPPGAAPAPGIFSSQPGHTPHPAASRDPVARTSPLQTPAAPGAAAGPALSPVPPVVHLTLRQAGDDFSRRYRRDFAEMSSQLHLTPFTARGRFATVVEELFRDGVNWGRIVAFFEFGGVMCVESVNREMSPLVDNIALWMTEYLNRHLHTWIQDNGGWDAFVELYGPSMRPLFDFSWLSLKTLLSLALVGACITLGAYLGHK
row,SMILES,pKi
1,"CC1(C)CCC(CN2CCN(c3ccc(C(=O)NS(=O)(=O)c4ccc(NC5CCN(C6CCOCC6)CC5)c([N+](=O)[O-])c4)c(Oc4cnc5[nH]ccc5c4)c3)CC2)=C(c2ccc(Cl)cc2)C1 [Example 3, 4-(4-{[2-(4-chlorophenyl)-4,4-dimethylcyclohex-1-en-1-yl]methyl}piperazin-1-yl)-N-({3-nitro-4-[(1-tetrahydro-2H-pyran-4-ylpiperidin-4-yl)amino]phenyl}sulfonyl)-2-(1H-pyrrolo[2,3-b]pyridin-5-yloxy)benzamide]",10.89
2,"CC1(C)CCC(CN2CCN(c3ccc(C(=O)NS(=O)(=O)c4ccc(NCCCN(C5CCC5)C5CC5)c([N+](=O)[O-])c4)c(Oc4cnc5[nH]ccc5c4)c3)CC2)=C(c2ccc(Cl)cc2)C1 [Example 320, 4-(4-{[2-(4-chlorophenyl)-4,4-dimethylcyclohex-1-en-1-yl]methyl}piperazin-1-yl)-N-{[4-({3-[cyclobutyl(cyclopropyl)amino]propyl}amino)-3-nitrophenyl]sulfonyl}-2-(1H-pyrrolo[2,3-b]pyridin-5-yloxy)benzamide]",> 11.00
3,"CC1(C)CCC(CN2CCN(c3ccc(C(=O)NS(=O)(=O)c4ccc(OCC5CCOC(C)(C)C5)c([N+](=O)[O-])c4)c(Oc4cnc5[nH]ccc5c4)c3)CC2)=C(c2ccc(Cl)cc2)C1 (stereo not drawn) [Example 51, 4-(4-{[2-(4-chlorophenyl)-4,4-dimethylcyclohex-1-en-1-yl]methyl}piperazin-1-yl)-N-({4-[(2,2-dimethyltetrahydro-2H-pyran-4-yl)methoxy]-3-nitrophenyl}sulfonyl)-2-(1H-pyrrolo[2,3-b]pyridin-5-yloxy)benzamide]",> 11.00
4,"CN(C)CC(=O)N1CCO[C@H](COc2ncc(S(=O)(=O)NC(=O)c3ccc(N4CCN(CC5=C(c6ccc(Cl)cc6)CC(C)(C)CC5)CC4)cc3Oc3cnc4[nH]ccc4c3)cc2Cl)C1 [Example 245, N-[(5-chloro-6-{[(2S)-4-(N,N-dimethylglycyl)morpholin-2-yl]methoxy}pyridin-3-yl)sulfonyl]-4-(4-{[2-(4-chlorophenyl)-4,4-dimethylcyclohex-1-en-1-yl]methyl}piperazin-1-yl)-2-(1H-pyrrolo[2,3-b]pyridin-5-yloxy)benzamide]",10.82
5,"CC1(C)CCC(CN2CCN(c3ccc(C(=O)NS(=O)(=O)c4ccc(NCC5(F)CCOCC5)c([N+](=O)[O-])c4)c(Oc4cnc5[nH]ccc5c4)c3)CC2)=C(c2ccc(Cl)cc2)C1 [Example 138, 4-(4-{[2-(4-chlorophenyl)-4,4-dimethylcyclohex-1-en-1-yl]methyl}piperazin-1-yl)-N-[(4-{[(4-fluorotetrahydro-2H-pyran-4-yl)methyl]amino}-3-nitrophenyl)sulfonyl]-2-(1H-pyrrolo[2,3-b]pyridin-5-yloxy)benzamide]",> 11.00
6,"COC1(Cc2ccccc2-c2ccc(Cl)cc2)CCN(c2ccc(C(=O)NS(=O)(=O)c3ccc(NCC4CCOCC4)c([N+](=O)[O-])c3)c(Oc3cnc4[nH]ccc4c3)c2)CC1 [Example 264, 4-{4-[(4′-chlorobiphenyl-2-yl)methyl]-4-methoxypiperidin-1-yl}-N-({3-nitro-4-[(tetrahydro-2H-pyran-4-ylmethyl)amino]phenyl}sulfonyl)-2-(1H-pyrrolo[2,3-b]pyridin-5-yloxy)benzamide]",10.44
7,"CN1CCC(COc2ncc(S(=O)(=O)NC(=O)c3ccc(N4CCN(CC5=C(c6ccc(Cl)cc6)CC(C)(C)CC5)CC4)cc3Oc3cnc4[nH]ccc4c3)cc2Br)CC1 [Example 47, N-({5-bromo-6-[(1-methylpiperidin-4-yl)methoxy]pyridin-3-yl}sulfonyl)-4-(4-{[2-(4-chlorophenyl)-4,4-dimethylcyclohex-1-en-1-yl]methyl}piperazin-1-yl)-2-(1H-pyrrolo[2,3-b]pyridin-5-yloxy)benzamide]",> 11.00
8,"CC1(C)CCC(CN2CCN(c3ccc(C(=O)NS(=O)(=O)c4cnc(OC[C@H]5CC[C@H](O)CC5)c(Cl)c4)c(Oc4cnc5[nH]ccc5c4)c3)CC2)=C(c2ccc(Cl)cc2)C1 [Example 298, N-({5-chloro-6-[(trans-4-hydroxycyclohexyl)methoxy]pyridin-3-yl}sulfonyl)-4-(4-{[2-(4-chlorophenyl)-4,4-dimethylcyclohex-1-en-1-yl]methyl}piperazin-1-yl)-2-(1H-pyrrolo[2,3-b]pyridin-5-yloxy)benzamide]",> 11.00
9,"CC1(C)CCC(CN2CCN(c3ccc(C(=O)NS(=O)(=O)c4ccc(NCC5CCC(F)(F)CC5)c([N+](=O)[O-])c4)c(Oc4cnc5[nH]ccc5c4)c3)CC2)=C(c2ccc(Cl)cc2)C1 [Example 239, 4-(4-{[2-(4-chlorophenyl)-4,4-dimethylcyclohex-1-en-1-yl]methyl}piperazin-1-yl)-N-[(4-{[(4,4-difluorocyclohexyl)methyl]amino}-3-nitrophenyl)sulfonyl]-2-(1H-pyrrolo[2,3-b]pyridin-5-yloxy)benzamide]",10.59
10,"CC1(C)CCC(CN2CCN(c3ccc(C(=O)NS(=O)(=O)c4ccc(NC5CCN(C6CCOC(C)(C)C6)CC5)c([N+](=O)[O-])c4)c(Oc4cnc5[nH]ccc5c4)c3)CC2)=C(c2ccc(Cl)cc2)C1 (stereo not drawn) [Example 141, 4-(4-{[2-(4-chlorophenyl)-4,4-dimethylcyclohex-1-en-1-yl]methyl}piperazin-1-yl)-N-[(4-{[1-(2,2-dimethyltetrahydro-2H-pyran-4-yl)piperidin-4-yl]amino}-3-nitrophenyl)sulfonyl]-2-(1H-pyrrolo[2,3-b]pyridin-5-yloxy)benzamide]",> 11.00
11,"CC1(C)CCC(CN2CCN(c3ccc(C(=O)NS(=O)(=O)c4cnc(OC[C@@H]5CCN(CC(F)F)C5)c(Cl)c4)c(Oc4cnc5[nH]ccc5c4)c3)CC2)=C(c2ccc(Cl)cc2)C1 [Example 281, N-[(5-chloro-6-{[(3R)-1-(2,2-difluoroethyl)pyrrolidin-3-yl]methoxy}pyridin-3-yl)sulfonyl]-4-(4-{[2-(4-chlorophenyl)-4,4-dimethylcyclohex-1-en-1-yl]methyl}piperazin-1-yl)-2-(1H-pyrrolo[2,3-b]pyridin-5-yloxy)benzamide]",9.84
12,"CC1(C)CCC(CN2CCN(c3ccc(C(=O)NS(=O)(=O)c4ccc(NCC5CCOC5)c([N+](=O)[O-])c4)c(Oc4cnc5[nH]ccc5c4)c3)CC2)=C(c2ccc(Cl)cc2)C1 (stereo not drawn) [Example 114, 4-(4-{[2-(4-chlorophenyl)-4,4-dimethylcyclohex-1-en-1-yl]methyl}piperazin-1-yl)-N-({3-nitro-4-[(tetrahydrofuran-3-ylmethyl)amino]phenyl}sulfonyl)-2-(1H-pyrrolo[2,3-b]pyridin-5-yloxy)benzamide]",> 11.00
13,"CC1(C)CCC(CN2CCN(c3ccc(C(=O)NS(=O)(=O)c4ccc(Cl)c([N+](=O)[O-])c4)c(Oc4cnc5[nH]ccc5c4)c3)CC2)=C(c2ccc(Cl)cc2)C1 [Example 82, N-[(4-chloro-3-nitrophenyl)sulfonyl]-4-(4-{[2-(4-chlorophenyl)-4,4-dimethylcyclohex-1-en-1-yl]methyl}piperazin-1-yl)-2-(1H-pyrrolo[2,3-b]pyridin-5-yloxy)benzamide]",9.48
14,"CC1(C)CCC(CN2CCN(c3ccc(C(=O)NS(=O)(=O)c4ccc(OCC5COCCN5)c([N+](=O)[O-])c4)c(Oc4cnc5[nH]ccc5c4)c3)CC2)=C(c2ccc(Cl)cc2)C1 (stereo not drawn) [Example 78, 4-(4-{[2-(4-chlorophenyl)-4,4-dimethylcyclohex-1-en-1-yl]methyl}piperazin-1-yl)-N-{[4-(morpholin-3-ylmethoxy)-3-nitrophenyl]sulfonyl}-2-(1H-pyrrolo[2,3-b]pyridin-5-yloxy)benzamide]",> 11.00

# Same assay, conditions: Table 5, direct comparison Z=N vs Z=C analogs; read-out: Bcl-2 FRET ki
row,SMILES,pKi
1,"CC1(C)CCC(CN2CCN(c3ccc(C(=O)NS(=O)(=O)c4ccc(NC5CCN(C6CCOCC6)CC5)c([N+](=O)[O-])c4)c(Oc4cnc5[nH]ccc5c4)c3)CC2)=C(c2ccc(Cl)cc2)C1 [Example 3, 4-(4-{[2-(4-chlorophenyl)-4,4-dimethylcyclohex-1-en-1-yl]methyl}piperazin-1-yl)-N-({3-nitro-4-[(1-tetrahydro-2H-pyran-4-ylpiperidin-4-yl)amino]phenyl}sulfonyl)-2-(1H-pyrrolo[2,3-b]pyridin-5-yloxy)benzamide]",10.89
